Laboratory results: PubChem BioAssay (NCI)
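96-well plates; 48 h exposure; 5 concentrations. Endpoints by linear interpolation between flanking doses. Not reached: highest tested concentration assigned. TGI is the concentration that stops growth completely.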 Where a SMILES comes first, the peptide text is derived from it. [ ]: non-standard residue; d: D form. The star is where a group is joined. X28 = COC1=CC(=O)N(C(=O)[C@@H](O*)C(C)C)[C@H]1Cc1ccccc1; Bn2Val = CC(C)[C@@H](C(=O)*)N(Cc1ccccc1)Cc1ccccc1; NMeV = CN[C@H](C(=O)O)C(C)C; dNMeA = CN[C@H](C)C(=O)O

Legend:
Assay in all cases: NCI anticancer screen, dose series, 48 h
MDA-N = test system: MDA-N
SK-MEL-28 melanoma = test system: SK-MEL-28 melanoma
MDA-MB-231 breast = test system: MDA-MB-231 breast
UO-31 renal = test system: UO-31 renal
MDA-MB-435 = test system: MDA-MB-435
RPMI-8226 leukemia = test system: RPMI-8226 leukemia
A498 renal = test system: A498 renal
SNB-75 CNS = test system: SNB-75 CNS
MCF7 breast = test system: MCF7 breast
OVCAR-5 ovarian = test system: OVCAR-5 ovarian
HCT-15 colon = test system: HCT-15 colon
K-562 leukemia = test system: K-562 leukemia
UACC-257 melanoma = test system: UACC-257 melanoma
786-0 renal = test system: 786-0 renal
SK-MEL-2 melanoma = test system: SK-MEL-2 melanoma
OVCAR-4 ovarian = test system: OVCAR-4 ovarian
SNB-19 CNS = test system: SNB-19 CNS
OVCAR-3 ovarian = test system: OVCAR-3 ovarian
SK-MEL-5 melanoma = test system: SK-MEL-5 melanoma
SF-268 CNS = test system: SF-268 CNS
SN12C renal = test system: SN12C renal
OVCAR-8 ovarian = test system: OVCAR-8 ovarian
A549 NSCLC = test system: A549 NSCLC
NCI-H226 lung = test system: NCI-H226 lung
KM12 colon = test system: KM12 colon
NCI-H23 lung = test system: NCI-H23 lung
HS 578T breast = test system: HS 578T breast
PC-3 prostate = test system: PC-3 prostate
MOLT-4 leukemia = test system: MOLT-4 leukemia
SW-620 colon = test system: SW-620 colon
HCC-2998 colon = test system: HCC-2998 colon
IGROV1 ovarian = test system: IGROV1 ovarian
MALME-3M melanoma = test system: MALME-3M melanoma
CCRF-CEM leukemia = test system: CCRF-CEM leukemia
HOP-62 NSCLC = test system: HOP-62 NSCLC
TK-10 renal = test system: TK-10 renal
UACC-62 melanoma = test system: UACC-62 melanoma
M14 melanoma = test system: M14 melanoma
EKVX NSCLC = test system: EKVX NSCLC
NCI/ADR-RES ovarian = test system: NCI/ADR-RES ovarian
SF-295 CNS = test system: SF-295 CNS
HT29 colon = test system: HT29 colon
U251 CNS = test system: U251 CNS
HCT-116 colon = test system: HCT-116 colon
COLO 205 colon = test system: COLO 205 colon
SK-OV-3 ovarian = test system: SK-OV-3 ovarian
RXF 393 renal = test system: RXF 393 renal
T-47D breast = test system: T-47D breast
SR leukemia = test system: SR leukemia
NCI-H460 lung = test system: NCI-H460 lung
DU-145 prostate = test system: DU-145 prostate
BT-549 breast = test system: BT-549 breast
ACHN renal = test system: ACHN renal
HOP-92 NSCLC = test system: HOP-92 NSCLC
CAKI-1 renal = test system: CAKI-1 renal
HL-60(TB) leukemia = test system: HL-60(TB) leukemia
SF-539 CNS = test system: SF-539 CNS
NCI-H522 lung = test system: NCI-H522 lung
LOX IMVI melanoma = test system: LOX IMVI melanoma

For `C[C@@H](NC(=O)[C@@H]1C[C@]1(C)CO)c1cccc2ccccc12`, the TGI (MDA-N) was > 100 µM, the TGI (SK-MEL-28 melanoma) was > 100 µM and the TGI (MDA-MB-231 breast) was > 100 µM. The TGI (UO-31 renal) was > 100 µM, the TGI (MDA-MB-435) was > 100 µM and the TGI (RPMI-8226 leukemia) was > 100 µM. For the same compound, the TGI (A498 renal) was > 100 µM, the TGI (SNB-75 CNS) was > 100 µM and the TGI (MCF7 breast) was > 100 µM. The TGI (OVCAR-5 ovarian) was > 100 µM, the TGI (HCT-15 colon) was > 100 µM and the TGI (K-562 leukemia) was > 100 µM. The TGI (UACC-257 melanoma) was > 100 µM, the TGI (786-0 renal) was > 100 µM and the TGI (SK-MEL-2 melanoma) was > 100 µM. The TGI (OVCAR-4 ovarian) was > 100 µM, the TGI (SNB-19 CNS) was > 100 µM and the TGI (OVCAR-3 ovarian) was > 100 µM. For the same compound, the TGI (SK-MEL-5 melanoma) was > 100 µM, the TGI (SF-268 CNS) was > 100 µM and the TGI (SN12C renal) was > 100 µM. For the same compound, the TGI (OVCAR-8 ovarian) was > 100 µM, the TGI (A549 NSCLC) was > 100 µM and the TGI (NCI-H226 lung) was > 100 µM. For the same compound, the TGI (KM12 colon) was > 100 µM, the TGI (NCI-H23 lung) was > 100 µM and the TGI (HS 578T breast) was > 100 µM. For the same compound, the TGI (PC-3 prostate) was > 100 µM, the TGI (MOLT-4 leukemia) was > 100 µM and the TGI (SW-620 colon) was > 100 µM. For the same compound, the TGI (HCC-2998 colon) was > 100 µM, the TGI (IGROV1 ovarian) was > 100 µM and the TGI (MALME-3M melanoma) was > 100 µM. For the same compound, the TGI (CCRF-CEM leukemia) was > 100 µM, the TGI (HOP-62 NSCLC) was > 100 µM and the TGI (TK-10 renal) was > 100 µM. The TGI (UACC-62 melanoma) was > 100 µM, the TGI (M14 melanoma) was > 100 µM and the TGI (EKVX NSCLC) was > 100 µM. The TGI (NCI/ADR-RES ovarian) was > 100 µM, the TGI (SF-295 CNS) was > 100 µM and the TGI (HT29 colon) was > 100 µM. For the same compound, the TGI (U251 CNS) was > 100 µM, the TGI (HCT-116 colon) was > 100 µM and the TGI (COLO 205 colon) was > 100 µM. The TGI (SK-OV-3 ovarian) was > 100 µM, the TGI (RXF 393 renal) was > 100 µM and the TGI (T-47D breast) was > 100 µM. The TGI (SR leukemia) was > 100 µM, the TGI (NCI-H460 lung) was > 100 µM and the TGI (DU-145 prostate) was > 100 µM. For the same compound, the TGI (BT-549 breast) was > 100 µM, the TGI (ACHN renal) was > 100 µM and the TGI (HOP-92 NSCLC) was > 100 µM. The TGI (CAKI-1 renal) was > 100 µM.
With `CCCCC(=C=C(C)CO)C1CCCN1C(=O)OC(C)(C)C` (centres undefined) the TGI (HL-60(TB) leukemia) was 32.5 µM, the TGI (MDA-N) was 34.2 µM and the TGI (SK-MEL-28 melanoma) was 36 µM. The TGI (MDA-MB-231 breast) was 34 µM, the TGI (UO-31 renal) was 37.7 µM and the TGI (MDA-MB-435) was 35.8 µM. The TGI (RPMI-8226 leukemia) was 36.8 µM, the TGI (SNB-75 CNS) was 53.4 µM and the TGI (MCF7 breast) was 43.5 µM. The TGI (OVCAR-5 ovarian) was 39.9 µM, the TGI (HCT-15 colon) was 39 µM and the TGI (K-562 leukemia) was 38.4 µM. It also gave a TGI (UACC-257 melanoma) of 32.7 µM, a TGI (786-0 renal) of 30.5 µM and a TGI (SK-MEL-2 melanoma) of 30.6 µM. For the same compound, the TGI (SF-539 CNS) was 34.5 µM, the TGI (OVCAR-4 ovarian) was 39.3 µM and the TGI (SNB-19 CNS) was 60.2 µM. The TGI (OVCAR-3 ovarian) was 31.8 µM, the TGI (SK-MEL-5 melanoma) was 29.8 µM and the TGI (SF-268 CNS) was 33.5 µM. It also gave a TGI (SN12C renal) of 31.5 µM, a TGI (OVCAR-8 ovarian) of 37.3 µM and a TGI (A549 NSCLC) of 48.1 µM. The TGI (NCI-H226 lung) was 33.9 µM, the TGI (KM12 colon) was 34.8 µM and the TGI (NCI-H23 lung) was 46.8 µM. It also gave a TGI (HS 578T breast) of 30.4 µM, a TGI (PC-3 prostate) of 38.1 µM and a TGI (NCI-H522 lung) of 29 µM. For the same compound, the TGI (MOLT-4 leukemia) was 33.8 µM, the TGI (SW-620 colon) was 89.8 µM and the TGI (HCC-2998 colon) was 20.3 µM. The TGI (IGROV1 ovarian) was 43.6 µM, the TGI (MALME-3M melanoma) was 28.2 µM and the TGI (CCRF-CEM leukemia) was 33.2 µM. It also gave a TGI (HOP-62 NSCLC) of 39.1 µM, a TGI (TK-10 renal) of 48.1 µM and a TGI (UACC-62 melanoma) of 26.9 µM. The TGI (M14 melanoma) was 35.4 µM, the TGI (EKVX NSCLC) was 44 µM and the TGI (NCI/ADR-RES ovarian) was 42.5 µM. The TGI (SF-295 CNS) was 31.7 µM, the TGI (HT29 colon) was 34.3 µM and the TGI (U251 CNS) was 31.7 µM. It also gave a TGI (HCT-116 colon) of 29.5 µM, a TGI (COLO 205 colon) of 32.9 µM and a TGI (SK-OV-3 ovarian) of 67.4 µM. For the same compound, the TGI (LOX IMVI melanoma) was 30.4 µM, the TGI (RXF 393 renal) was 29.4 µM and the TGI (T-47D breast) was > 100 µM. It also gave a TGI (SR leukemia) of 31.5 µM, a TGI (NCI-H460 lung) of 31.8 µM and a TGI (DU-145 prostate) of 34.1 µM. The TGI (BT-549 breast) was 31.8 µM, the TGI (ACHN renal) was 68.2 µM and the TGI (HOP-92 NSCLC) was 25.6 µM. The TGI (CAKI-1 renal) was 61.5 µM.
In the case of `COC1=CC(=O)N(C(=O)[C@@H](OC(=O)[C@@H](C)N(C)C(=O)[C@@H]2CCCN2C(=O)[C@H](C(C)C)N(C)C(=O)[C@@H](NC(=O)[C@H](C(C)C)N(Cc2ccccc2)Cc2ccccc2)C(C)C)C(C)C)[C@H]1Cc1ccccc1` (Bn2Val-V[NMeV]P[dNMeA]-X28), the TGI (MDA-N) is reported as > 100 µM, the TGI (SK-MEL-28 melanoma) is reported as > 100 µM and the TGI (MDA-MB-231 breast) is reported as > 77.6 µM. The TGI (UO-31 renal) was 22.3 µM, the TGI (MDA-MB-435) was > 100 µM and the TGI (RPMI-8226 leukemia) was > 100 µM. For the same compound, the TGI (A498 renal) was > 100 µM, the TGI (SNB-75 CNS) was > 54.8 µM and the TGI (MCF7 breast) was > 100 µM. The TGI (OVCAR-5 ovarian) was > 100 µM, the TGI (HCT-15 colon) was > 100 µM and the TGI (K-562 leukemia) was > 100 µM. The TGI (UACC-257 melanoma) was > 100 µM, the TGI (786-0 renal) was > 100 µM and the TGI (SK-MEL-2 melanoma) was > 100 µM. The TGI (SF-539 CNS) was > 100 µM, the TGI (OVCAR-4 ovarian) was > 100 µM and the TGI (SNB-19 CNS) was > 100 µM. The TGI (OVCAR-3 ovarian) was > 100 µM, the TGI (SK-MEL-5 melanoma) was > 100 µM and the TGI (SF-268 CNS) was > 100 µM. The TGI (SN12C renal) was > 100 µM, the TGI (OVCAR-8 ovarian) was > 100 µM and the TGI (A549 NSCLC) was > 100 µM. For the same compound, the TGI (NCI-H226 lung) was > 100 µM, the TGI (KM12 colon) was > 100 µM and the TGI (HS 578T breast) was > 100 µM. For the same compound, the TGI (PC-3 prostate) was > 100 µM, the TGI (NCI-H522 lung) was > 100 µM and the TGI (SW-620 colon) was > 100 µM. The TGI (HCC-2998 colon) was > 100 µM, the TGI (IGROV1 ovarian) was > 100 µM and the TGI (MALME-3M melanoma) was > 100 µM. The TGI (CCRF-CEM leukemia) was > 100 µM, the TGI (HOP-62 NSCLC) was > 100 µM and the TGI (TK-10 renal) was > 100 µM. The TGI (UACC-62 melanoma) was > 100 µM, the TGI (M14 melanoma) was > 100 µM and the TGI (EKVX NSCLC) was > 100 µM. For the same compound, the TGI (NCI/ADR-RES ovarian) was > 100 µM, the TGI (SF-295 CNS) was > 100 µM and the TGI (HT29 colon) was > 100 µM. The TGI (U251 CNS) was > 100 µM, the TGI (HCT-116 colon) was > 100 µM and the TGI (COLO 205 colon) was > 100 µM. For the same compound, the TGI (SK-OV-3 ovarian) was > 100 µM, the TGI (LOX IMVI melanoma) was > 100 µM and the TGI (RXF 393 renal) was > 100 µM. The TGI (T-47D breast) was > 100 µM, the TGI (SR leukemia) was > 100 µM and the TGI (NCI-H460 lung) was > 100 µM. The TGI (DU-145 prostate) was > 100 µM, the TGI (BT-549 breast) was > 100 µM and the TGI (ACHN renal) was > 100 µM. The TGI (HOP-92 NSCLC) was > 100 µM and the TGI (CAKI-1 renal) was > 100 µM.
